The results in this text go back to the kinase profiling compilation of Christmann-Franck et al. (2016).

The target in one assay is CAMK1G (human) (UniProt Q96NX5). The assay can be described thus: KINOMEscan competition binding. Conditions: compound 10.0 µM.
Another assay relates to CPK1 (P.falciparum). Description: KINOMEscan competition binding. Conditions: compound 10.0 µM.
The target in a further assay is CRK2 (P.falciparum) (UniProt P61075). Description: KINOMEscan competition binding. Particulars: compound 10.0 µM.
Sequence of CRK2 (P.falciparum) (P61075 whole entry, looked up): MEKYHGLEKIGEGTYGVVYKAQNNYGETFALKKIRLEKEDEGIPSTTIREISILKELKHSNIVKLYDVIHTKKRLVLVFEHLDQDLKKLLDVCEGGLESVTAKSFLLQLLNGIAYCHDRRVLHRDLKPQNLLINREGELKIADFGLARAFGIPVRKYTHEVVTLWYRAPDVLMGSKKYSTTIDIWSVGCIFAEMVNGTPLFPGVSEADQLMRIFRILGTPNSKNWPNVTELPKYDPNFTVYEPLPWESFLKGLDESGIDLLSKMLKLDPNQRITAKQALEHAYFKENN
A further assay deals with MAP3K12 (human) (UniProt Q12852). Description: KINOMEscan competition binding.
Sequence of MAP3K12 (human) (Q12852 whole entry, looked up): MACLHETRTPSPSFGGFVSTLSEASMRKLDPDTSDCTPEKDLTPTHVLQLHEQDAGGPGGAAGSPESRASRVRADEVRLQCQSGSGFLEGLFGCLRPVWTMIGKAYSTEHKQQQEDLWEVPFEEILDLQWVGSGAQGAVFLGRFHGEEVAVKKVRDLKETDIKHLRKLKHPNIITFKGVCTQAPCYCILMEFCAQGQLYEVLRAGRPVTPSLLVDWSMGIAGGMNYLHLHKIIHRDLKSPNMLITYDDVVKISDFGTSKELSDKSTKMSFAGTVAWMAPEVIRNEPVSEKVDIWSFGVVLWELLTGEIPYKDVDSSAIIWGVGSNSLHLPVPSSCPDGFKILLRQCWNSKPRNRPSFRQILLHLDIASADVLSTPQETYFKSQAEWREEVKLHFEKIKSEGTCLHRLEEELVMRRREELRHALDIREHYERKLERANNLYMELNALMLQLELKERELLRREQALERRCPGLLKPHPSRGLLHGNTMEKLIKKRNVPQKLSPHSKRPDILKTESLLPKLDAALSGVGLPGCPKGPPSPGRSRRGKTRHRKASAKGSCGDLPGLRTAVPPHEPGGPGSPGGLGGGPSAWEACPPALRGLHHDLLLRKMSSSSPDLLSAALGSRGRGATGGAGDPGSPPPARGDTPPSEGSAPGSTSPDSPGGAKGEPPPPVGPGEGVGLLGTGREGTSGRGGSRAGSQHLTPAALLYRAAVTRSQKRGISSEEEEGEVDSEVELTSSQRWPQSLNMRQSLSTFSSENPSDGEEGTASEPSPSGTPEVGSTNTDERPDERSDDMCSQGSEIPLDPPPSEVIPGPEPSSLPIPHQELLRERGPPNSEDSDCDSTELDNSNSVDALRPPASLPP
Another assay has as its target MYLK3 (human) (UniProt Q32MK0). Description: KINOMEscan competition binding.
A further assay has as its target TAOK2 (human) (UniProt Q9UL54). The assay can be described thus: KINOMEscan competition binding. Particulars: compound 10.0 µM.
The target of a further assay is TNK2 (human) (UniProt Q07912). The assay can be described thus: KINOMEscan competition binding.
Sequence of TNK2 (human) (Q07912 whole entry, looked up): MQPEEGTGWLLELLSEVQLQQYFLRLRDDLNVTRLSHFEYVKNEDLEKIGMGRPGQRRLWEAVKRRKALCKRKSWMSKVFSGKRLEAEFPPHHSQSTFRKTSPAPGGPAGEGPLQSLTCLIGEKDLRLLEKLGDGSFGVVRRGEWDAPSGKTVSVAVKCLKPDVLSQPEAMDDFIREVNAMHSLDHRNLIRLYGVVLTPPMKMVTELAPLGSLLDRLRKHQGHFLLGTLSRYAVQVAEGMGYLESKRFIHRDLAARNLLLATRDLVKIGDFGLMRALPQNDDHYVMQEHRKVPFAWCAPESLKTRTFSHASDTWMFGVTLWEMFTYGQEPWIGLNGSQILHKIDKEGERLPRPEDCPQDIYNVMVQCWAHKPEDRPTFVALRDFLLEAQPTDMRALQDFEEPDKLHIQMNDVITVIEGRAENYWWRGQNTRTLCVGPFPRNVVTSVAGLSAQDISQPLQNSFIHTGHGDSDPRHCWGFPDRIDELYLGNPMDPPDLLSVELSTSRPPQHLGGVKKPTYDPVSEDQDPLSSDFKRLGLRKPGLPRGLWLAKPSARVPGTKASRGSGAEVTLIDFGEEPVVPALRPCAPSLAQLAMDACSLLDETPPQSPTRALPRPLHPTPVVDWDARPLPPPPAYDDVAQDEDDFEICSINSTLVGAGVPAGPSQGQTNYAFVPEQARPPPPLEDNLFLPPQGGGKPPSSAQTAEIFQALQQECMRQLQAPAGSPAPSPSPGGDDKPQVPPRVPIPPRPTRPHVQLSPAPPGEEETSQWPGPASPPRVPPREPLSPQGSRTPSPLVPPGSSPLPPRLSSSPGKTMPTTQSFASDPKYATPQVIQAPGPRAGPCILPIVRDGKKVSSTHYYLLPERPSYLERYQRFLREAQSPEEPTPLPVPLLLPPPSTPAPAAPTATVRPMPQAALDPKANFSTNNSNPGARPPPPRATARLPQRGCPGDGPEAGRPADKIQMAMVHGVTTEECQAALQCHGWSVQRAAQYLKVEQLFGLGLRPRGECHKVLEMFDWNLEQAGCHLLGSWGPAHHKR
The next assay has as its target MAPK9 (human) (UniProt P45984).
Assay [1] has as its target PDPK1 (human) (UniProt O15530).
Assay [2] concerns the target PRKACA (human) (UniProt P17612).
Assay [3] deals with PDPK1 (human) (UniProt O15530). The assay can be described thus: SelectScreen, TR FRET. Conditions: compound 1.0 µM. (In general: In TR-FRET formats the signal depends on donor and acceptor labels being close together.)
Sequence of PDPK1 (human) (O15530 whole entry, looked up): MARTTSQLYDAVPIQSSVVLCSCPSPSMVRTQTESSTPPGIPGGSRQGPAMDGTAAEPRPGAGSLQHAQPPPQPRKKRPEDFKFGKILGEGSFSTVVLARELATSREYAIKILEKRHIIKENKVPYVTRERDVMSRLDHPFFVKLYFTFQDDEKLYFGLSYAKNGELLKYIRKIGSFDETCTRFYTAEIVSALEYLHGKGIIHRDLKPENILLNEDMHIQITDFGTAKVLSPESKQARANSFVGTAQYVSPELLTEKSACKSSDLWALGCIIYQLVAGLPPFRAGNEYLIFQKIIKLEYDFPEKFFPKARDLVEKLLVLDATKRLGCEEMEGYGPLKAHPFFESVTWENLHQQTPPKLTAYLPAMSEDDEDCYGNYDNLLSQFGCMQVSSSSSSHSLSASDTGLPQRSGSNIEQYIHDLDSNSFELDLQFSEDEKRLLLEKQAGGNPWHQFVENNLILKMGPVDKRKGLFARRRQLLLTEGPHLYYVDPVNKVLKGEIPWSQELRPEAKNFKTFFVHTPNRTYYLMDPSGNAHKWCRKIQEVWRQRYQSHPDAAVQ
The target in another assay is CSNK1A1L (human) (UniProt Q8N752). The assay can be described thus: KINOMEscan competition binding.
Assay [4] addresses PRKACA (human) (UniProt P17612). The assay can be described thus: KINOMEscan competition binding.
For a further assay, the target named is SBK1 (human) (UniProt Q52WX2). The assay can be described thus: KINOMEscan competition binding.
For another assay, the target named is AKT1 (human) (UniProt P31749). Description: SelectScreen, TR FRET. Conditions: compound 1.0 µM.
The next assay concerns the target AURKA (human) (UniProt O14965). The assay can be described thus: SelectScreen, TR FRET. Conditions: compound 1.0 µM.
The target in the next assay is CHEK2 (human) (UniProt O96017). Description: SelectScreen, TR FRET. Conditions: compound 1.0 µM.
Another assay addresses EPHA1 (human) (UniProt P21709). The assay can be described thus: SelectScreen, TR FRET. Conditions: compound 1.0 µM.
The next assay addresses FLT4 (human) (UniProt P35916). Description: SelectScreen, TR FRET. Particulars: compound 1.0 µM.
The target of a further assay is KDR (human) (UniProt P35968). Description: SelectScreen, TR FRET. Particulars: compound 1.0 µM.
Sequence of KDR (human) (P35968 whole entry, looked up): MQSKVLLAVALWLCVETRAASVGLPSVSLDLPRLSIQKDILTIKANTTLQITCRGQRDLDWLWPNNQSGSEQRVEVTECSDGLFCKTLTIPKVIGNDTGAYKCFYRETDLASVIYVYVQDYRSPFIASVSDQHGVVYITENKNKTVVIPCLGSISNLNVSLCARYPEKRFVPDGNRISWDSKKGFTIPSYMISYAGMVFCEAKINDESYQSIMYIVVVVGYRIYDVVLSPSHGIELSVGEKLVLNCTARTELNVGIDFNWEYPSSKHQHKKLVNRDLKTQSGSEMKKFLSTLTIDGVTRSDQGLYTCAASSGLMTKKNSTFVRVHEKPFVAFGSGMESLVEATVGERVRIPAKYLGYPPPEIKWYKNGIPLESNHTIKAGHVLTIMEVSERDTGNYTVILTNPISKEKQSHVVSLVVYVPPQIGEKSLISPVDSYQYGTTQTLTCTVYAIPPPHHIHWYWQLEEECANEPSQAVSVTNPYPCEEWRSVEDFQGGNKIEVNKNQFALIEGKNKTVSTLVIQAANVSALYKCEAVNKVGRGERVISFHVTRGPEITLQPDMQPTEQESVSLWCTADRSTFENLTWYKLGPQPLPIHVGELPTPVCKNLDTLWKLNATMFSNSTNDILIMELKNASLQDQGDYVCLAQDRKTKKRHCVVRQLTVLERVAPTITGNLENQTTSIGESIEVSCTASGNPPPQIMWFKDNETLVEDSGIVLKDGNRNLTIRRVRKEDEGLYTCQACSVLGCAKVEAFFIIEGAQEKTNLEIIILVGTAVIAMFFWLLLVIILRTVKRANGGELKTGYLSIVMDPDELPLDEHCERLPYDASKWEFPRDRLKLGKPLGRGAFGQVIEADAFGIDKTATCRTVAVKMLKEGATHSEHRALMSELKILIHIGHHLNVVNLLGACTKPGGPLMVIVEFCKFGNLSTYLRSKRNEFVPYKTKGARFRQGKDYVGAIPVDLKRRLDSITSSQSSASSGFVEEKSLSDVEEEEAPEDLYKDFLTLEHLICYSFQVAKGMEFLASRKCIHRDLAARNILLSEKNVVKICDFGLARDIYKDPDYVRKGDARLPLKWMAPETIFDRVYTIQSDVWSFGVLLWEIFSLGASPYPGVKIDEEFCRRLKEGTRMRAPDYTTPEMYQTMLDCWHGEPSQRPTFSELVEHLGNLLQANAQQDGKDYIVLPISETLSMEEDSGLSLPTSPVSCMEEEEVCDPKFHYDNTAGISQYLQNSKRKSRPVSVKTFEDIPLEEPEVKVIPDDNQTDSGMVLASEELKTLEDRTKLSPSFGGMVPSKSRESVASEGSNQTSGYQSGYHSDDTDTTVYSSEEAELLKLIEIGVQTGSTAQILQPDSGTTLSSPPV
A further assay addresses PDGFRA (human) (UniProt P16234). Description: SelectScreen, TR FRET. Particulars: compound 1.0 µM.
Another assay has as its target PDGFRB (human) (UniProt P09619). The assay can be described thus: SelectScreen, TR FRET. Conditions: compound 1.0 µM.
In another assay the target is BMPR1A (human) (UniProt P36894). The assay can be described thus: KINOMEscan competition binding. Particulars: compound 1.0 µM.
The target in a further assay is TAOK1 (human) (UniProt Q7L7X3). Description: KINOMEscan competition binding. Particulars: compound 1.0 µM.

Sequence of MYLK3 (human) (Q32MK0 whole entry, looked up): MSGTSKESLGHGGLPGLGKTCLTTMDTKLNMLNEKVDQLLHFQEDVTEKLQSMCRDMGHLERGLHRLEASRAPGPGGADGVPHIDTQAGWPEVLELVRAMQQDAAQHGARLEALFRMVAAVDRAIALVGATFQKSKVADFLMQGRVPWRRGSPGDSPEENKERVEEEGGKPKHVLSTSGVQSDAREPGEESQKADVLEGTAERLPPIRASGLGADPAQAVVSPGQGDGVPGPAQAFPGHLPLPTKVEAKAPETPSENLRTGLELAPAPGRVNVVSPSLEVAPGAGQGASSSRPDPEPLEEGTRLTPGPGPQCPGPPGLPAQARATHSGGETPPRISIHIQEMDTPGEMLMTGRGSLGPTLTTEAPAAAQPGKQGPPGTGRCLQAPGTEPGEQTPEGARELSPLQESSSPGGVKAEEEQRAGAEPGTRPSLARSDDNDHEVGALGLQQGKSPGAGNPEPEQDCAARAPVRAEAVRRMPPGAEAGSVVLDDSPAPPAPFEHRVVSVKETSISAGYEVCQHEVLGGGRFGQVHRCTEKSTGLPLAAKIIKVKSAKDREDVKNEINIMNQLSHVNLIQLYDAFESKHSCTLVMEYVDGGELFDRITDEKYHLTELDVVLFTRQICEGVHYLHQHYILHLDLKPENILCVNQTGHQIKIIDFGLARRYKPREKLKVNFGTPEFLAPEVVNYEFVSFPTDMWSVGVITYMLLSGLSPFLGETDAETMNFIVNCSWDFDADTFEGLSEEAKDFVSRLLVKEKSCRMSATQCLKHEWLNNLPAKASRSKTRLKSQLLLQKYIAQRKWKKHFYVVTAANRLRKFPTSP

Consider `O=C(Nc1cccnc1)c1cc(-c2ccnc(F)c2)ccc1OCc1ccccc1`, for which the kinase still bound, per cent of control at CAMK1G (human), with CPK1 (P.falciparum), on CRK2 (P.falciparum), at MYLK3 (human) (compound 10.0 µM), at TAOK2 (human) and at TNK2 (human) (compound 10.0 µM) was 100% in each case. This compound also registered a residual activity at MAP3K12 (human) (compound 10.0 µM) of 100%.

`Cc1c(C(=O)N2CCOc3ccc(-c4ccc(N)nc4)cc3C2)ccc(S(C)(=O)=O)c1F`: the IC50 against MAPK9 (human), against PDPK1 (human) [1] and against PRKACA (human) [2] was more than 10 µM throughout.

Take `CC(C)(O)c1ccc(-c2cnc3c(n2)N(CC2CCOCC2)CC(=O)N3)cn1`: the residual activity at PDPK1 (human) [3] is 100%.

Take `CO[C@@H]1[C@H](N(C)C(=O)c2ccccc2)C[C@H]2O[C@]1(C)n1c3ccccc3c3c4c(c5c6ccccc6n2c5c31)C(=O)NC4O` (some centres not stated): the Kd on CSNK1A1L (human) was more than 10 µM; on MAP3K12 (human), more than 10 µM; at MYLK3 (human), more than 10 µM; at PRKACA (human) [4] it was more than 10 µM; on SBK1 (human), more than 10 µM; on TNK2 (human), 0.015 µM.

`CC(C)(C)c1cc(NC(=O)NCc2ccc(-c3cc(NC(=O)c4ccc(OCCN5CCOCC5)cc4)[nH]n3)cc2)no1`: the inhibition at AKT1 (human) was -17%; against AURKA (human) it was -48%; against CHEK2 (human), -10%; against EPHA1 (human), -20%; against FLT4 (human), -86%; on KDR (human), -99%. Besides, the inhibition at PDGFRA (human) is -85%; at PDGFRB (human), -97%.

`Nc1ccccc1Nc1ccc2c(c1)CCc1ccccc1C2=O`: the kinase still bound, per cent of control on BMPR1A (human) and on TAOK1 (human) was 100% each time.

What is called residual activity is the share of the control activity or signal that is left under treatment. A low value points to little activity left. Usually IC50 stands for the midpoint of a concentration-inhibition curve. A lower IC50 goes with higher potency. By Kd is commonly meant a measure of binding affinity in units of concentration. A higher Kd goes with weaker binding. For orientation: inhibition means the change of the read-out against control, counted positive when it falls.
